According to article PMC6302903, “Protein and Chemical Determinants of BL-1249 Action and Selectivity for K2P Channels” (ACS Chemical Neuroscience, 2018):

Target: T1, K2P4.1(TRAAK) M134F (Mus musculus, UniProt O88454, M134F)
T1 construct: expressed in transfected cells; host or cells: Xenopus laevis oocytes, mRNA injected
Experiment: TEVC of K2P4.1(TRAAK) mutant M134F
Type: cell-based
Settings: Xenopus oocytes, saturation not reached, fit with upper boundary of 15 (I/I0)
From the text: To identify K2P2.1(TREK-1) M2 residues that might participate in the BL-1249 response, we mapped the residues that differ between K2P2.1(TREK-1) and K2P4.1(TRAAK) in the context of the K2P2.1(TREK-1) structure[6] (Figure 5B,C). Two K2P2.1(TREK-1) M2 residues stood out as candidates that could explain the reduction in BL-1249 response when the entire M2 helix was replaced with M2 from K2P4.1(TRAAK). One is at the M2/M4 interface and occurs between Phe172 and Arg297 via a π–cation interaction that would be lost when Phe172 is replaced with the equivalent K2P4.1(TRAAK) residue Met134 (Figure 5C, right inset). […] To assess the importance of these interactions in the context of BL-1249 response, we made the K2P2.1(TREK-1) mutants F172M and F185L and measured their responses to BL-1249 (Figure 5D). […]
Xenopus laevis oocytes were harvested in accordance with UCSF IACUC protocol AN129690 and digested in calcium-free ND-96 (96 mM NaCl, 2 mM KCl, 3.8 mM MgCl2) immediately following harvest, as previously described.[6],[10] […] Defolliculated stage V–VI oocytes were injected with 0.2–6.0 ng of mRNA in 50 nL, and currents were recorded 24–48 h after injection. mRNA was synthesized from plasmid DNA using mMessage mMachine Kit (T7 promoter, Ambion, Life Technologies) and purified using RNEasy Kit (Qiagen). […]

T1 sequence (O88454 whole entry M134F): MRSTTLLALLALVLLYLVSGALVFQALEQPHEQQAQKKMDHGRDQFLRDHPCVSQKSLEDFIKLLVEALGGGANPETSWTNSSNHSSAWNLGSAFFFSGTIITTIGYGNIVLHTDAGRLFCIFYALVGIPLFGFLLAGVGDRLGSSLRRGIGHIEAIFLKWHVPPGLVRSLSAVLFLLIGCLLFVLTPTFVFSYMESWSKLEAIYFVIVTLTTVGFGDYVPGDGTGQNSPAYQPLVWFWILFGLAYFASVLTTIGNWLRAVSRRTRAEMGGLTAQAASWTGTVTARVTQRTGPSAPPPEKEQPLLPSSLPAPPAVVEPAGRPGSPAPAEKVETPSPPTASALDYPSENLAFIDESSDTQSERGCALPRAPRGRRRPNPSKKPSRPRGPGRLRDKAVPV

An EC50 of 58 ± 34 µM was found for c1ccc(-c2nnn[nH]2)c(Nc2cccc3c2CCCC3)c1 [BL-1249, (5,6,7,8-tetrahydro-naphthalen-1-yl)-[2-(1H-tetrazol-5-yl)-phenyl]-amine] in this work.
